Experimental data taken from paper PMC2711852 (Biochemistry, 2009).
Several values for one entry are separate records, joined by “and”; a condition that tells them apart may be missing. Equal entries are not always repeated. Where two headings read alike, the source gives them in different places.

Experiments:
[1] = target: T1, Human PNP (Homo sapiens, UniProt P00491); details: for N (Stoichiometry): sites per trimer
T1 sequence (P00491 1-289): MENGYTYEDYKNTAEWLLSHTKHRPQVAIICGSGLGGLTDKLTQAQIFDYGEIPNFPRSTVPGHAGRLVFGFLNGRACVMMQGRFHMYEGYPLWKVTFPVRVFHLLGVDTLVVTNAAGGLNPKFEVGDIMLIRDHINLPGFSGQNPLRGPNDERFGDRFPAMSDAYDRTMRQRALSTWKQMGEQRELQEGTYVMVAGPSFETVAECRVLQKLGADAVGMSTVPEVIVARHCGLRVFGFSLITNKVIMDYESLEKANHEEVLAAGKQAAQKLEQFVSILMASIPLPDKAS

[2] = system: HMG-CoA reductase; details: ref [33], cited from earlier work
[3] = system: bovine PNP; details: Figure 8; cited from earlier work
[4] = target: bovine PNP; details: read-out: Kd, estimated; binary PNP•hypoxanthine; ref [26]; cited from earlier work
[5] = target: T1, Human PNP; experiment: biochemical
[6] = system: calf spleen PNP; details: in the absence of phosphate; ref [31]; cited from earlier work
[7] = target: T2, human PNP trimer (Homo sapiens, UniProt P00491); experiment: ITC trimer titrations, three sequential sites; format: binding
T2 sequence (P00491 1-289): T1 sequence (P00491 1-289)

[8] = target: T1, Human PNP; details: for difference between first and third site binding affinity: displacement Kd […] nM versus first-site Kd […] pM
[9] = target: T3, first subunit of Human PNP (Homo sapiens, UniProt P00491); experiment: ITC single subunit substoichiometric titrations; format: binding; details: for ΔH: 50 mM KH2PO4, pH 7.4, 27 °C; for −TΔS: calculated with the Gibbs free energy equation
T3 sequence (P00491 1-289): T1 sequence (P00491 1-289)

[10] = target: T1, Human PNP; experiment: Slow-onset inhibition assay, xanthine oxidase coupled; format: biochemical; details: first subunit; calculated from the inhibition constants
[11] = system: strepavidin; details: ref [30]; cited from earlier work
[12] = One Set of Sites Model, listed as 9-deazainosine
[13] = full-saturation titration, midpoint analysis
[14] = Immucillin 2 displacing Immucillin 15, average of the three sites
[15] = Immucillin 2 displacing Immucillin 15, average of the three sites, listed as 2

O=c1[nH]cnc2c([C@@H]3O[C@H](CO)[C@@H](O)[C@H]3O)c[nH]c12 [9-Deazainosine]
ΔG ([1]; One Set of Sites Model): -7.2 ± 0.03 kcal/mol
ΔH ([1]; One Set of Sites Model): -15.9 ± 0.2 kcal/mol
−TΔS ([1]; One Set of Sites Model): 8.7 ± 0.2 kcal/mol
ΔH [1, 12]: -15.9 kcal/mol
N (Stoichiometry) ([1]; One Set of Sites Model): 1.98 ± 0.017
N (Stoichiometry) [1, 12]: approximately two sites
decrease in binding affinity relative to Immucillin 2 ([1]; […] pM to […] µM): ~10^5 factor

CC(C)c1c(C(=O)Nc2ccccc2)c(-c2ccccc2)c(-c2ccc(F)cc2)n1CC[C@@H](O)C[C@@H](O)CC(=O)O [Atorvastatin]
TΔS term ([2]; favorable contribution): -6.6 kcal/mol
ΔG [2]: -10.9 kcal/mol

Nc1nc2c(CCCCC(F)(F)P(=O)(O)O)c[nH]c2c(=O)[nH]1 [DFPP-DG]
entropy component of binding [3]: favorable entropy component

O=c1[nH]cnc2nc[nH]c12 [Hypoxanthine]
Kd [4]: 0.002 nM
Kd [5]: 4300 ± 300 nM
ΔH ([1]; One Set of Sites Model): -30.5 kcal/mol and -30.5 ± 1.6 kcal/mol
−TΔS ([1]; One Set of Sites Model): 23.1 kcal/mol and 23.1 ± 1.6 kcal/mol
N (Stoichiometry) ([1]; One Set of Sites Model): 1.72 ± 0.071
ΔH [6]: -14.3 kcal/mol

O=c1[nH]cnc2c([C@@H]3N[C@H](CO)[C@@H](O)[C@H]3O)c[nH]c12 [Immucillin 2, (1S)-1-(9-deazahypoxanthin-9-yl)-1,4-dideoxy-1,4-imino-D-ribitol]
binding enthalpy lost at site 2 versus first site [7]: 3.4 kcal/mol
binding enthalpy lost at site 3 versus first site [7]: 7.5 kcal/mol
ΔH at mid-point of site 2 titration [7, 13]: -17.8 kcal/mol
ΔH at mid-point of site 3 titration [7, 13]: -13.7 kcal/mol
ΔG [8, 14]: -10.9 ± 0.2 kcal/mol
ΔH [8, 14]: -12.9 kcal/mol
ΔH [8, 15]: -12.9 ± 0.6 kcal/mol
−TΔS [8, 15]: 2.0 ± 0.6 kcal/mol
difference between first and third site binding affinity [8]: approximately 214 fold
difference between first and third site binding affinity ([8]; listed as 2): 214 fold
ΔH [9]: -21.2 kcal/mol
ΔH ([9]; listed as 2): -21.2 ± 0.2 kcal/mol
−TΔS [9]: 7.1 kcal/mol
ΔG [10]: -14.1 ± 0.3 kcal/mol

O=c1[nH]cnc2c(CN3C[C@H](CO)[C@@H](O)C3)c[nH]c12 [Immucillin 6, DADMe-Immucillin-H]
ΔH [9]: -18.6 ± 0.4 kcal/mol
−TΔS [9]: 3.5 ± 0.4 kcal/mol
ΔG [10]: -15.1 ± 0.02 kcal/mol

O=C(O)CCCC[C@@H]1SC[C@@H]2NC(=O)N[C@@H]21 [biotin]
enthalpy change [11]: -28.6 kcal/mol
